“Also recorded” adds a separate entry of the source.
Legend:
[1] = 21-day continuous infusion toxicity study in the monkey with a 3-week recovery; assay type: in vivo
Method: A second repeat-dose study was conducted in monkeys to evaluate the toxicity associated with administration of test article by continuous intravenous infusion for 21 days followed by a 21-day recovery period. Twenty-eight monkeys were administered one of the following dose levels; vehicle control, 2 mg/kg/day, 10 mg/kg/day, or 50 mg/kg/day. Toxicokinetic samples were collected prior to the initiation of infusion, approximately 8, 24, 48, and 96 hours following the start of infusion, and on Day 20 prior to the change in dose-syringes. […] As in the previous rat study, the 2 mg/kg/day dose level was identified as the no-adverse-effect-level (NOAEL).

[2] = tested on: MDA-MB435-To.1 human Taxol-resistant breast adenocarcinoma cells; assay: MDA-MB435-To.1 Taxol-resistant breast adenocarcinoma, fat pad, SCID mice (2.5); assay type: in vivo, human cells in mice
Method: BxPC-3 is a gemcitabine resistant call line. […] Gemcitabine was administered intravenously every three days at a dose of 100 mg/kg. Antitumour activities were estimated by the inhibition of tumour volume, which was measured with caliper. Each point represents mean tumour volume calculated from 10 animals per experimental group. […] Hela S3 is a hydroxyurea resistant cell line. […] Hydroxyurea was administered intraperitoneally every day at a dose of 250 mg/kg for 10 days. Cisplatin was administered intravenously once a week for three weeks at a dose of 4 mg/kg. Antitumour activities were estimated by the inhibition of tumour volume, which was measured with caliper. Each point represents mean tumour volume calculated from 10 animals per experimental group. […] Cisplatin was administered intravenously once a week for three weeks at a dose of 4 mg/kg. Taxol was administered intravenously once a week for three weeks at a dose of 10 mg/kg. Antitumour activities were estimated by the inhibition of tumour volume, which was measured with caliper. Each point represents mean tumour volume calculated from 10 animals per experimental group. […] Taxol was administered i.p. once a week at a dose of 10 mg/kg. Antitumour activities were estimated by the inhibition of tumour volume (FIG. 12A), which was measured with calipers. Each point represents mean tumour volume calculated from 10 animals per experimental group. Animals were sacrificed and tumour weights taken at the end of the study (FIG. 12C). […] Cisplatin was administered intravenously once a week for four weeks at a dose of 4 mg/kg. Taxol was administered intravenously once a week for four weeks at a dose of 20 mg/kg. Antitumour activities were estimated by the inhibition of tumour volume, which was measured with caliper. Each point represents mean tumour volume calculated from 9-10 animals per experimental group. […] Cisplatin was administered intravenously once a week for four weeks at a dose of 4 mg/kg. Antitumour activities were estimated by the inhibition of tumour volume, which was measured with caliper. Each point represents mean tumour volume calculated from 10 animals per experimental group. At the end of the study the animals were sacrificed and tumours weighed. […] Taxol was administered i.p. once a week at a dose of 10 mg/kg. Anti-tumour activity was estimated by the inhibition of tumour volume, which was measured with caliper. Each point represents mean tumour volume calculated from 10 animals per experimental group. In addition animals were sacrificed and tumour weights taken at the end of the study. […] CPT-11 was administered i.p. for 5 days at a dose of 20 mg/kg/day. Antitumour activities were estimated by the inhibition of tumour volume, which was measured with caliper. Each point represents mean tumour volume calculated from 10 animals per experimental group. Tumour weights were measured after animals were sacrificed at the end of the treatment. These cells are not resistant to CPT-11 which was used as a positive control.

[3] = tested on: MDA-MB435-To.1 human Taxol-resistant breast adenocarcinoma cells; assay: MDA-MB435-To.1 Taxol-resistant breast adenocarcinoma, fat pad, CB-17 SCID mice, combination with Cisplatin (2.6); assay type: in vivo, human cells in mice; conditions: SEQ ID NO:1 10 mg/kg i.v. every other day
Method: BxPC-3 is a gemcitabine resistant call line. […] Gemcitabine was administered intravenously every three days at a dose of 100 mg/kg. Antitumour activities were estimated by the inhibition of tumour volume, which was measured with caliper. Each point represents mean tumour volume calculated from 10 animals per experimental group. […] Hela S3 is a hydroxyurea resistant cell line. […] Hydroxyurea was administered intraperitoneally every day at a dose of 250 mg/kg for 10 days. Cisplatin was administered intravenously once a week for three weeks at a dose of 4 mg/kg. Antitumour activities were estimated by the inhibition of tumour volume, which was measured with caliper. Each point represents mean tumour volume calculated from 10 animals per experimental group. […] Cisplatin was administered intravenously once a week for three weeks at a dose of 4 mg/kg. Taxol was administered intravenously once a week for three weeks at a dose of 10 mg/kg. Antitumour activities were estimated by the inhibition of tumour volume, which was measured with caliper. Each point represents mean tumour volume calculated from 10 animals per experimental group. […] Taxol was administered i.p. once a week at a dose of 10 mg/kg. Antitumour activities were estimated by the inhibition of tumour volume (FIG. 12A), which was measured with calipers. Each point represents mean tumour volume calculated from 10 animals per experimental group. […] Antitumour activities were estimated by the inhibition of tumour volume, which was measured with caliper. Each point represents mean tumour volume calculated from 9-10 animals per experimental group. […] Antitumour activities were estimated by the inhibition of tumour volume, which was measured with caliper. Each point represents mean tumour volume calculated from 10 animals per experimental group. […] Anti-tumour activity was estimated by the inhibition of tumour volume, which was measured with caliper. Each point represents mean tumour volume calculated from 10 animals per experimental group. […] Antitumour activities were estimated by the inhibition of tumour volume, which was measured with caliper. […]

[4] = tested on: BxPC-3 human pancreatic carcinoma cells; assay: BxPC-3 gemcitabine resistant pancreatic carcinoma xenograft in CD-1 nude mice; assay type: in vivo, human cells in mice; conditions: Gemcitabine 100 mg/kg i.v. every three days
Method: BxPC-3 is a gemcitabine resistant call line. […] Gemcitabine was administered intravenously every three days at a dose of 100 mg/kg. Antitumour activities were estimated by the inhibition of tumour volume, which was measured with caliper. Each point represents mean tumour volume calculated from 10 animals per experimental group. […] Hela S3 is a hydroxyurea resistant cell line. […] Hydroxyurea was administered intraperitoneally every day at a dose of 250 mg/kg for 10 days. Cisplatin was administered intravenously once a week for three weeks at a dose of 4 mg/kg. Antitumour activities were estimated by the inhibition of tumour volume, which was measured with caliper. Each point represents mean tumour volume calculated from 10 animals per experimental group. […] Cisplatin was administered intravenously once a week for three weeks at a dose of 4 mg/kg. Taxol was administered intravenously once a week for three weeks at a dose of 10 mg/kg. Antitumour activities were estimated by the inhibition of tumour volume, which was measured with caliper. Each point represents mean tumour volume calculated from 10 animals per experimental group. […] Taxol was administered i.p. once a week at a dose of 10 mg/kg. Antitumour activities were estimated by the inhibition of tumour volume (FIG. 12A), which was measured with calipers. Each point represents mean tumour volume calculated from 10 animals per experimental group. Animals were sacrificed and tumour weights taken at the end of the study (FIG. 12C). […] Cisplatin was administered intravenously once a week for four weeks at a dose of 4 mg/kg. Taxol was administered intravenously once a week for four weeks at a dose of 20 mg/kg. Antitumour activities were estimated by the inhibition of tumour volume, which was measured with caliper. Each point represents mean tumour volume calculated from 9-10 animals per experimental group. […] Cisplatin was administered intravenously once a week for four weeks at a dose of 4 mg/kg. Antitumour activities were estimated by the inhibition of tumour volume, which was measured with caliper. Each point represents mean tumour volume calculated from 10 animals per experimental group. At the end of the study the animals were sacrificed and tumours weighed. […] Taxol was administered i.p. once a week at a dose of 10 mg/kg. Anti-tumour activity was estimated by the inhibition of tumour volume, which was measured with caliper. Each point represents mean tumour volume calculated from 10 animals per experimental group. […] Antitumour activities were estimated by the inhibition of tumour volume, which was measured with caliper. Each point represents mean tumour volume calculated from 10 animals per experimental group. Tumour weights were measured after animals were sacrificed at the end of the treatment. […]

[5] = continuous i.v. infusion 21 days

## 5′-GGCTAAATCGCTCCACCAAG-3′ (all phosphorothioate, sugars by position and methylation of C not given here) [SEQ ID NO: 1, fully phosphorothioated antisense oligonucleotide that hybridizes to the coding region of R2 mRNA]
[1]; 2, 10 or 50 mg/kg/day continuous i.v. infusion 21 days
  Deaths: No unplanned deaths
[1]; 3-week post-dosing treatment-free period
  Reversibility of changes: reversed either completely or partially
[1]; 10 and 50 mg/kg/day continuous i.v. infusion 21 days
  Toxicity findings: splenic histiocytosis, anticoagulant effects, complement activation, and continuous infusion effects
[1]; [5]
  Target organs (histopathologic changes): kidneys, liver, and lymph nodes
  no-adverse-effect-level (NOAEL): 2 mg/kg/day
[2]; MDA-MB435-To.1 (breast), Taxol resistant, SCID, SEQ ID NO:1 10 mg/kg i.v. every other day 15 times, Taxol 20 mg/kg, Cisplatin 4 mg/kg i.v. weekly x4
  Tumour weight as % of saline control: 42%
[2]; MDA-MB435-To.1 Taxol-resistant, SCID mice, SEQ ID NO:1 10 mg/kg i.v. every other day, Cisplatin 4 mg/kg, Taxol 20 mg/kg i.v. weekly
  Antitumour effect (FIG. 13): significant reduction of tumour weight compared to saline control; also recorded: superior to the inhibitory effects observed with Cisplatin
[3]; MDA-MB435-To.1 (breast), Taxol resistant, CB-17/SCID, Cisplatin 4 mg/kg i.v. weekly x4
  Tumour weight as % of saline control: 37%
[3]; MDA-MB435-To.1 Taxol-resistant, CB-17 SCID mice, Cisplatin 4 mg/kg i.v. weekly
  Antitumour effect (FIG. 14): significant reduction of tumour weight compared to saline control; also recorded: superior to the inhibitory effects observed with Cisplatin
[4]; BxPC-3 (pancreatic), Gemcitabine resistant, CD-1, SEQ ID NO:1 10 mg/kg i.v. every other day 17 times
  Tumour weight as % of saline control: 5.8%
[4]; BxPC-3 gemcitabine resistant, CD-1 nude mice, SEQ ID NO:1 10 mg/kg i.v. every other day
  Antitumour effect (tumour volume, FIG. 9): significant delay of tumour growth compared to saline control

From patent US7968526B2, “Antisense oligonucleotides directed to ribonucleotide reductase R2 and uses thereof in the treatment of cancer” (Lorus Therapeutics Inc., priority 2003, dated 2011)
